Laboratory results reported in patent US9867373B2, “Fungicidal composition having synergistic effect” (JIANGSU HUIFENG AGROCHEMICAL CO., LTD., priority 2013, dated 2018).
In brackets after ≈: the same amount, converted by molar mass.

Key:
rust pathogens of wheat = experiment: whole plant or invertebrate; format: in vivo
[1] = test system: downy mildew pathogens of cucumber; experiment: Toxicity test on downy mildew pathogens of cucumber (disease index and control effect on whole cucumber plant); format: in vivo; conditions: for ATI: actual toxicity index
oomycetes = conditions: background statement; cited from earlier work

Molecule: Fc1ccc([C@]2(Cn3cncn3)O[C@H]2c2ccccc2Cl)cc1 (racemic) [Epoxiconazole, epoxiconazole]
- EC50 (rust pathogens of wheat; Triticum aestivum): 5.29 µg/mL (≈ 16 µM)

Molecule: O=C(S)c1cccc2nnsc12 [Acibenzolar, acibenzolar]
- EC50 ([1]; Table 8, with acibenzolar): 5.38 µg/mL (≈ 27.4 µM)
- ATI ([1]; Table 8, with acibenzolar): 91.45

Molecule: CO/C=C(/C(=O)OC)c1ccccc1Oc1cc(Oc2ccccc2C#N)ncn1 [Azoxystrobin, azoxystrobin]
- EC50 ([1]; Table 3, with azoxystrobin): 5.82 µg/mL (≈ 14.4 µM)
- ATI ([1]; Table 3, with azoxystrobin): 72.34

Molecule: CC(C)OC(=O)N[C@H](C(=O)N[C@H](C)c1nc2ccc(F)cc2s1)C(C)C [Benthiavalicarb-isopropyl, benthiavalicarb-isopropyl]
- EC50 ([1]; Cucumis sativus): 5.41 µg/mL (≈ 14.2 µM)
- ATI ([1]; Table 1, with benthiavalicarb-isopropyl): 60.1

Molecule: Cc1cc(C2CC2)nc(Nc2ccccc2)n1 [Cyprodinil, cyprodinil]
- EC50 (rust pathogens of wheat; Triticum aestivum): 5.87 µg/mL (≈ 26.1 µM)

Molecule: CC1COC(Cn2cncn2)(c2ccc(Oc3ccc(Cl)cc3)cc2Cl)O1 (stereo not shown) [Difenoconazole, difenoconazole]
- EC50 (rust pathogens of wheat; Triticum aestivum): 5.45 µg/mL (≈ 13.4 µM)

Molecule: COc1ccc(C(=CC(=O)N2CCOCC2)c2ccc(Cl)cc2)cc1OC [Dimethomorph, dimethomorph]
- ATI ([1]; Table 2, with dimethomorph): 63.9
- concentration at which an inhibitory effect is exerted (oomycetes): < 0.25 µg/mL

Molecule: N#Cc1sc2c(=O)c3ccccc3c(=O)c=2sc1C#N [Dithianon, dithianon]
- EC50 ([1]; Cucumis sativus): 5.34 µg/mL (≈ 18 µM)
- ATI ([1]; Table 5, with dithianon): 88.39

Molecule: CSC1=N[C@@](C)(c2ccccc2)C(=O)N1Nc1ccccc1 [Fenamidone, fenamidone]
- EC50 ([1]; Cucumis sativus): 5.12 µg/mL (≈ 16.4 µM)
- ATI ([1]; Table 4, with fenamidone): 107.62

Molecule: O=[N+]([O-])c1cc(C(F)(F)F)c(Cl)c([N+](=O)[O-])c1Nc1ncc(C(F)(F)F)cc1Cl [Fluazinam, fluazinam]
- EC50 ([1]; Cucumis sativus): 5.19 µg/mL (≈ 11.2 µM)
- ATI ([1]; Table 9, with fluazinam): 97.88

Molecule: CC(C)NC(=O)N1CC(=O)N(c2cc(Cl)cc(Cl)c2)C1=O [Iprodione, iprodione]
- EC50 (rust pathogens of wheat; Triticum aestivum): 5.35 µg/mL (≈ 16.2 µM)

Molecule: CO/C=C(/C(=O)OC)c1ccccc1COc1cccc(C(F)(F)F)n1 [Picoxystrobin, picoxystrobin]
- EC50 (rust pathogens of wheat; Table 15, with picoxystrobin): 5.68 µg/mL (≈ 15.5 µM)
- ATI (rust pathogens of wheat; actual toxicity index, Table 15, with picoxystrobin): 87.68

Molecule: OC(Cc1ccccc1Cl)(Cn1nc[nH]c1=S)C1(Cl)CC1 (stereo not shown) [Prothioconazole, prothioconazole]
- EC50 (rust pathogens of wheat; Triticum aestivum): 5.12 µg/mL (≈ 14.9 µM)

Molecule: COC(=O)N(OC)c1ccccc1COc1ccn(-c2ccc(Cl)cc2)n1 [Pyraclostrobin, pyraclostrobin]
- EC50 (rust pathogens of wheat; Triticum aestivum): 4.98 µg/mL (≈ 12.8 µM)

Molecule: Cc1nc(C(F)(F)F)c(C(=O)Nc2c(Br)cc(OC(F)(F)F)cc2Br)s1 [Thifluzamide, thifluzamide]
- EC50 (rust pathogens of wheat; Triticum aestivum): 5.12 µg/mL (≈ 9.7 µM)

Molecule: CON=C(C(=O)OC)c1ccccc1CON=C(C)c1cccc(C(F)(F)F)c1 [Trifloxystrobin, trifloxystrobin]
- EC50 (rust pathogens of wheat; Triticum aestivum): 4.75 µg/mL (≈ 11.6 µM)

Molecule: CCC(C)(NC(=O)c1cc(Cl)c(C)c(Cl)c1)C(=O)CCl (stereo not shown) [Zoxamide, zoxamide]
- EC50 ([1]; Cucumis sativus): 5.11 µg/mL (≈ 15.2 µM)
- ATI ([1]; Table 7, with zoxamide): 95.69

Molecule: polyoxin
- EC50 ([1]; Table 6, with polyoxin): 5.24 µg/mL
- ATI ([1]; Table 6, with polyoxin): 89.89
